Data: ChEMBL document CHEMBL1142795, “Synthesis, structure-activity relationships, and anxiolytic activity of 7-aryl-6,7-dihydroimidazoimidazole corticotropin-releasing factor 1 receptor antagonists” (Bioorg Med Chem Lett, 2005)
pKi: −log10 of the molar value.

Tested on: not listed separately
Experiment: Volume of distribution upon intravenous administration of 2 mg/kg of dose in a dosing vehicle of 10/10/80 cremaphor/DMSO/water
Type: ADME, organism-based
Parameters: dose 2 mg/kg, route intravenous
Settings: in vivo

Vd	Structure (SMILES)
5.7 L/kg	CCCN(CC1CC1)C(=O)c1c(CC)nc2n1CCN2c1c(C)cc(C)cc1C

Tested on: not listed separately
Experiment: Maximum concentration upon oral administration of 10 mg/kg of dose in a dosing vehicle of 10/10/80 cremaphor/DMSO/water
Type: ADME, organism-based
Parameters: dose 10 mg/kg, route oral
Settings: in vivo

Cmax	Structure (SMILES)
250 ng/mL	CCCN(CC1CC1)C(=O)c1c(CC)nc2n1CCN2c1c(C)cc(C)cc1C

Tested on: not listed separately
Experiment: Area under curve (0-24 hr) upon oral administration of 10 mg/kg of dose in a dosing vehicle of 10/10/80 cremaphor/DMSO/water
Type: ADME, organism-based
Parameters: time < 24 hr, dose 10 mg/kg, route oral
Settings: in vivo

AUC(0-t) at 24 h	Structure (SMILES)
1520 ng·h/mL	CCCN(CC1CC1)C(=O)c1c(CC)nc2n1CCN2c1c(C)cc(C)cc1C

Tested on: not listed separately
Experiment: Clearance upon intravenous administration of 2 mg/kg of dose in a dosing vehicle of 10/10/80 cremaphor/DMSO/water
Type: ADME, organism-based
Parameters: dose 2 mg/kg, route intravenous
Settings: in vivo

clearance	Structure (SMILES)
35 mL/min/kg	CCCN(CC1CC1)C(=O)c1c(CC)nc2n1CCN2c1c(C)cc(C)cc1C

Tested on: not listed separately
Experiment: Maximum time to reach peak concentration upon oral administration of 10 mg/kg of dose in a dosing vehicle of 10/10/80 cremaphor/DMSO/water
Type: ADME, organism-based
Parameters: dose 10 mg/kg, route oral
Settings: in vivo

Tmax	Structure (SMILES)
4 h	CCCN(CC1CC1)C(=O)c1c(CC)nc2n1CCN2c1c(C)cc(C)cc1C

Biological target: T1, Corticotropin-releasing factor receptor 1 (Homo sapiens, UniProt P34998)
T1 sequence (P34998 whole entry): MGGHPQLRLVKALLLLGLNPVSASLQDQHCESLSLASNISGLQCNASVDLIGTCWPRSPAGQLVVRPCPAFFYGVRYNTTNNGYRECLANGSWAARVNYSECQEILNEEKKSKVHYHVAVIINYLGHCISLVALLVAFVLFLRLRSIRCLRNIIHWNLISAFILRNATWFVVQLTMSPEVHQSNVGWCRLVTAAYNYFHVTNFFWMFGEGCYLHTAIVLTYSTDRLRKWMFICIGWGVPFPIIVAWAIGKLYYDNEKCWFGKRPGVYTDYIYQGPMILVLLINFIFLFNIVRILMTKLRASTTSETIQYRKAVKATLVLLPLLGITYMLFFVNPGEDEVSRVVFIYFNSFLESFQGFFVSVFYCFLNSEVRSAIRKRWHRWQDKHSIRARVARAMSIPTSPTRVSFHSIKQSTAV
Experiment: Displacement of [125I]-Tyr-o- CRF from human corticotropin releasing factor receptor 1 expressed in IMR-32 cells
Type: cell-based
Settings: not given

Structure (SMILES)	pKi
CCc1nc2n(c1C(=O)N1CCN(C(C)=O)CC1)CCN2c1c(C)cc(C)cc1C	< 5.00
CCCN(CCC)C(=O)c1c(CC)nc2n1CCN2c1c(C)cc(C)cc1C	7.00
CCc1nc2n(c1C(=O)N(CC1CC1)CC(F)(F)F)CCN2c1c(C)cc(C)cc1Br	7.59
CCc1nc2n(c1C(=O)N(CC1CC1)CC(F)(F)F)CCN2c1c(C)cc(C)cc1Cl	7.39
C=CCN(CCC)C(=O)c1c(CC)nc2n1CCN2c1c(C)cc(C)cc1C	6.13
CCc1nc2n(c1C(=O)N(CC)CCN(C)C)CCN2c1c(C)cc(C)cc1C	< 5.00
CCCN(CC1CC1)C(=O)c1c(C)nc2n1CCN2c1c(C)cc(C)cc1C	6.66
CCc1nc2n(c1C(=O)N(CCC(F)(F)F)CC1CC1)CCN2c1c(C)cc(C)cc1C	7.14
C=CCN(CC=C)C(=O)c1c(CC)nc2n1CCN2c1c(C)cc(C)cc1C	5.52
CCc1nc2n(c1C(=O)Nc1ccccc1)CCN2c1c(C)cc(C)cc1C	< 5.00
CCc1nc2n(c1C(=O)N(CCC(F)(F)F)Cc1ccc(Cl)cc1)CCN2c1c(C)cc(C)cc1C	6.57
CCCN(Cc1cccc(F)c1)C(=O)c1c(CC)nc2n1CCN2c1c(C)cc(C)cc1C	5.38
CCCN(Cc1ccc(Cl)cc1)C(=O)c1c(CC)nc2n1CCN2c1c(C)cc(C)cc1C	5.52
CCCN(CC1CC1)C(=O)c1c(CC)nc2n1CCN2c1c(C)cc(Cl)cc1Cl	7.12
CCc1nc2n(c1C(=O)N(CC1CC1)CC1CC1)CCN2c1c(C)cc(C)cc1C	7.17
CCc1nc2n(c1C(=O)N(CCC1CC1)CCC(F)(F)F)CCN2c1c(C)cc(C)cc1C	6.19
CCc1nc2n(c1C(=O)N1CCNCC1)CCN2c1c(C)cc(C)cc1C	< 5.00
CCCN(CC1CC1)C(=O)c1c(CC)nc2n1CCN2c1c(C)cc(C)cc1Cl	7.03
CCCN(Cc1c(C)nc2n1CCN2c1c(C)cc(C)cc1C)CC1CC1	5.18
CCCCN(CC)C(=O)c1c(CC)nc2n1CCN2c1c(C)cc(C)cc1C	6.54

More lines, now with the values ahead:

pKi	Structure (SMILES)
6.90	CCCN(CC1CC1)C(=O)c1c(CC)nc2n1CCN2c1c(C)cc(C)cc1Br
5.81	CCCN(CC1CC1)C(=O)c1c(CC)nc2n1CCN2c1ccc(C(C)C)cc1Br
< 5.00	CCc1nc2n(c1C(=O)N1CCN(c3ccccc3F)CC1)CCN2c1c(C)cc(C)cc1C
5.39	CCCN(Cc1ccccc1)C(=O)c1c(CC)nc2n1CCN2c1c(C)cc(C)cc1C
7.38	CCCN(CC1CC1)C(=O)c1c(CC)nc2n1CCN2c1c(C)cc(C)cc1C
6.57	CCc1nc2n(c1C(=O)N(CC1CC1)CC(F)(F)F)CCN2c1ccc(C(C)C)cc1Br
6.18	CCc1nc2n(c1C(=O)N(CCC(F)(F)F)Cc1ccccc1)CCN2c1c(C)cc(C)cc1C
6.66	CCCN(CCc1ccccc1)C(=O)c1c(CC)nc2n1CCN2c1c(C)cc(C)cc1C
4.72	CCCN(Cc1c(CC)nc2n1CCN2c1c(C)cc(C)cc1C)CC1CC1
7.20	CCc1nc2n(c1C(=O)N(CC1CC1)CC(F)(F)C(F)(F)F)CCN2c1c(C)cc(C)cc1C
< 5.00	CCc1nc2n(c1C(=O)N(Cc1ccccc1)Cc1ccccc1)CCN2c1c(C)cc(C)cc1C
7.39	CCc1nc2n(c1C(=O)N(CC1CC1)CC(F)(F)F)CCN2c1c(C)cc(C)cc1C
6.21	CCc1nc2n(c1C(=O)N(CC)CCC1CC1)CCN2c1c(C)cc(C)cc1C
6.11	CCCN(CCC1CC1)C(=O)c1c(CC)nc2n1CCN2c1c(C)cc(C)cc1C
7.21	CCCN(CC(F)(F)F)C(=O)c1c(CC)nc2n1CCN2c1c(C)cc(C)cc1C
7.62	CCc1nc2n(c1C(=O)N(CC1CC1)CC(F)(F)F)CCN2c1c(C)cc(Cl)cc1Cl
7.03	CCc1nc2n(c1C(=O)N(CC)CC1CC1)CCN2c1c(C)cc(C)cc1C
6.66	CCCN(CCC(F)(F)F)C(=O)c1c(CC)nc2n1CCN2c1c(C)cc(C)cc1C

Tested on: not listed separately
Experiment: Bioavailability upon oral administration of 10 mg/kg of dose in a dosing vehicle of 10/10/80 cremaphor/DMSO/water
Type: ADME, organism-based
Settings: eutheria, in vivo

bioavailability	Structure (SMILES)
32%	CCCN(CC1CC1)C(=O)c1c(CC)nc2n1CCN2c1c(C)cc(C)cc1C

Tested on: not listed separately
Experiment: Brain to plasma (2 hours) concentration ratio upon intravenous administration of 2 mg/kg of dose in a dosing vehicle of 10/10/80 cremaphor/DMSO/water
Type: ADME, organism-based
Parameters: dose 2 mg/kg, route intravenous
Settings: brain and plasma, read-out: B/P

Kp at 2 h	Structure (SMILES)
0.21	CCCN(CC1CC1)C(=O)c1c(CC)nc2n1CCN2c1c(C)cc(C)cc1C
